Assay results taken from US10561637B2, “Methods for treating angiogenesis related disorder” (KAOHSIUNG MEDICAL UNIVERSITY, priority 2017, dated 2020).
“Also recorded” adds a separate entry of the source.

Legend:
human EPCs [1] = assay: Sulforhodamine B (SRB) cell proliferation assay in human EPCs; assay type: cell-based; conditions: 48th hour
Procedure: (§1) Mitella formosana (Hayata) Masam. is a perennial herb of Saxifragaceae, a native plant of Taiwan. In the present invention, three kinds of tannin compounds, PGG, tellimagrandin I, and tellimagrandin II, found in the compounds extracted from Mitella formosana by using Bioassay-guided fractionation, inhibited the proliferation of EPCs in a concentration dependent manner. […] The results of tube formation assay confirmed that these three compounds (10 μM) inhibited the tube formation of EPCs in different degrees (FIG. 2B). […] Importantly, CAM-angiogenesis model and mice Matrigel-plus model were used to verify the anti-angiogenic effect of tellimagrandin II in vivo.

human EPCs [2] = assay: tube formation assay (capillary-like structures) in human EPCs; assay type: cell-based; conditions: 5 and 10 μM, 24 hours, phase-contrast microscope
Text: The data of five independent experiments are expressed as the mean±mean standard deviation. As compared with the control group, * means p<0.05; *** means p<0.001.
as §1

human EPCs [3] = assay: lactate dehydrogenase (LDH) release assay in human EPCs; assay type: cell-based; conditions: 10-20 μM, 24th hour
Text: The data of five independent experiments are expressed as the mean±mean standard deviation. As compared with the control group, * means p<0.05; ** means p<0.05; *** means p<0.001.
as §1

mice = assay: Matrigel plug model of capillary formation; assay type: in vivo
Text: (§2) Sorafenib is a multiple kinase inhibitor, which is used as a positive control in the in vivo anti-angiogenesis assay.
as §1

chicken embryo = assay: chorioallantoic membrane (CAM) angiogenesis assay; assay type: in vivo; conditions: CAM-angiogenesis model
Text: as §2, §1

| Structure (SMILES) | proliferation of EPCs (human EPCs [1]) | tube formation of EPCs, concentration dependence (human EPCs [2]) | LDH release (cytotoxicity) (human EPCs [3]) | formation of capillaries in mice (mice) | in vivo neovascularization in the chicken embryo (chicken embryo) |
| --- | --- | --- | --- | --- | --- |
| O=C(OC[C@H]1O[C@@H](OC(=O)c2cc(O)c(O)c(O)c2)[C@H](OC(=O)c2cc(O)c(O)c(O)c2)[C@@H](OC(=O)c2cc(O)c(O)c(O)c2)[C@@H]1OC(=O)c1cc(O)c(O)c(O)c1)c1cc(O)c(O)c(O)c1 [PGG, 1,2,3,4,6-penta-O-galloyl-β-D-glucose] | suppress the proliferation of EPCs in a concentration dependent manner | inhibited the tube formation of EPCs in a concentration dependent manner | – | – | – |
| O=C(OC1O[C@@H]2COC(=O)c3cc(O)c(O)c(O)c3-c3c(cc(O)c(O)c3O)C(=O)O[C@H]2[C@H](OC(=O)c2cc(O)c(O)c(O)c2)[C@H]1OC(=O)c1cc(O)c(O)c(O)c1)c1cc(O)c(O)c(O)c1 (some centres unmarked) [tellimagrandin II] | suppress the proliferation of EPCs in a concentration dependent manner; also recorded: exhibited the most potent effect | inhibited the tube formation of EPCs in a concentration dependent manner | LDH release was not induced | effectively inhibited the formation of capillaries in mice | inhibited in vivo neovascularization in the chicken embryo in a concentration dependent manner |
| O=C(O[C@H]1[C@@H]2OC(=O)c3cc(O)c(O)c(O)c3-c3c(cc(O)c(O)c3O)C(=O)OC[C@H]2OC(O)[C@@H]1OC(=O)c1cc(O)c(O)c(O)c1)c1cc(O)c(O)c(O)c1 (some centres unmarked) [tellimagrandin I] | suppress the proliferation of EPCs in a concentration dependent manner | – | – | – | – |
